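Grown in 96-well plates, cells were treated for 48 hours with each compound at five concentrations. Insufficient inhibition: endpoint recorded as highest concentration tested. Abbreviation: GI50, concentration required for 50% inhibition of growth.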 Active and inactive are the calls of the source. No stated cut-off is given here; in the data, active = GI50 up to about 1.1 µM and inactive = higher.
Key:
Test in all cases: NCI anticancer screen, dose series, 48 h
M19-MEL = system: M19-MEL
DLD-1 = system: DLD-1
HOP-18 = system: HOP-18
XF498 = system: XF498
SNB-78 = system: SNB-78
DMS-273 = system: DMS-273
LXFL 529 = system: LXFL 529
RXF 631 = system: RXF 631
786-0 = system: 786-0

Measured: GI50

c1ccc2c(c1)SP1Sc3ccccc3P21 (stereo not drawn)
inactive: M19-MEL > 100 µM | DLD-1 > 92.5 µM | HOP-18 18.1 µM | XF498 > 100 µM | SNB-78 > 100 µM | DMS-273 > 100 µM

COC1CCC(O)C(CO)O1 (stereo not drawn)
inactive: M19-MEL 60.7 µM | DLD-1 > 100 µM | XF498 > 100 µM | LXFL 529 50.6 µM | SNB-78 > 100 µM

O=C(O)C12CCCC(CCC1)C2
inactive: RXF 631 > 100 µM | DLD-1 > 100 µM | XF498 > 100 µM | LXFL 529 > 100 µM | SNB-78 > 100 µM | DMS-273 > 100 µM

CSc1nc(Cl)c2c(n1)Sc1ncnn1C2O (stereo not drawn)
inactive: 786-0 2.66 µM

Cc1ccc2c(c1)C(=O)N(N(C)C)CC(=O)N2
inactive: M19-MEL > 100 µM | DLD-1 > 100 µM | HOP-18 > 100 µM | XF498 > 100 µM | LXFL 529 > 100 µM | SNB-78 > 100 µM | DMS-273 > 100 µM

C[n+]1c(-c2ccc(/C=N/Nc3n[nH]c(=S)n3N/N=C/c3ccc(-c4cn5ccccc5[n+]4C)cc3)cc2)cn2ccccc21
inactive: 786-0 > 100 µM

Cc1cccc(C(C)C)c1NC(=O)CC1Sc2ccccc2NC1=O (stereo not drawn)
inactive: RXF 631 85.1 µM | DLD-1 > 100 µM | HOP-18 > 100 µM | XF498 > 100 µM | LXFL 529 79.1 µM | DMS-273 45.8 µM

Cc1cc(=O)n2nc(CSc3nnc(S)s3)sc2n1
inactive: 786-0 > 100 µM

CNC(=O)CNC(=O)CCC(=O)N(C)C
inactive: 786-0 > 100 µM

CC1(C)OC2CC(=O)OCC23C1CC(=O)C1(C)C3CCC2(C)C(c3ccoc3)OC(=O)C3OC321 (stereo not drawn)
inactive: M19-MEL > 125 µM | DLD-1 > 125 µM | HOP-18 > 125 µM | XF498 > 125 µM | SNB-78 > 125 µM | DMS-273 > 125 µM

O=C1C(=Cc2cccc(O)c2)N=C(c2ccccc2)N1n1c(-c2ccccc2)nc2ccccc2c1=O
inactive: 786-0 39.8 µM

CCCCn1/c(=N/C(=S)N(C)C)ss/c1=N\C(=S)N(C)C
inactive: 786-0 > 100 µM | M19-MEL > 100 µM | DLD-1 > 100 µM | HOP-18 > 100 µM | XF498 > 100 µM | LXFL 529 > 100 µM | SNB-78 > 100 µM | DMS-273 > 100 µM

CN(C)C(=O)OCOC(=O)N(C)C
inactive: M19-MEL > 100 µM | DLD-1 > 100 µM | HOP-18 > 100 µM | XF498 > 100 µM | SNB-78 > 100 µM | DMS-273 > 100 µM

O=C(CCC1C(=O)NC(=S)NC1=O)c1ccc2ccccc2c1
inactive: 786-0 > 100 µM | M19-MEL > 100 µM | DLD-1 > 100 µM | HOP-18 > 100 µM | LXFL 529 > 100 µM | SNB-78 > 100 µM | DMS-273 > 100 µM

CC(C)(C)c1cc(O)ccc1O [E319]
inactive: 786-0 > 54.8 µM
